In the supplement of paper PMC4977894:
± gives the standard deviation of the averaged measurements.

What was measured:
[1] = tested on: Homo sapiens (human subject panel, olfactory perception); assay: perceived odor familiarity rating (rating 0-100); higher = more familiar
Outline: (§1)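 Across ten visits of 100 stimuli, 55 healthy human subjects aged 18–50 sniffed 1 mL of each molecule in paraffin oil in randomized order, at both high and low concentrations. The six lowest performers were excluded. Whenever a subject reported smelling a stimulus, they rated it on a computerized slider that started at 50 and had to be moved, and positions were converted to a 0–100 scale. Each familiarity, intensity and pleasantness figure is a mean across subjects.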

[2] = tested on: Homo sapiens (human subject panel, olfactory perception); assay: perceived odor pleasantness rating (rating 0-100); higher = more pleasant
Outline: as §1

[3] = tested on: Homo sapiens (human subject panel, olfactory perception); assay: perceived odor intensity rating (rating 0-100); higher = stronger perceived smell
Outline: as §1

[4] = odor dilution in paraffin oil: 1/1,000
[5] = odor dilution in paraffin oil: 1/100,000
[6] = odor dilution in paraffin oil: 1/10
[7] = odor dilution in paraffin oil: 1/10,000,000

Row | SMILES | perceived odor familiarity rating [1, 4] | perceived odor familiarity rating [1, 5] | perceived odor pleasantness rating [2, 4] | perceived odor pleasantness rating [2, 5] | perceived odor intensity rating [3, 4] | perceived odor intensity rating [3, 5] | perceived odor familiarity rating [1, 6] | perceived odor pleasantness rating [2, 6] | perceived odor intensity rating [3, 6] | perceived odor familiarity rating [1, 7] | perceived odor pleasantness rating [2, 7] | perceived odor intensity rating [3, 7]
1 | CC(=O)c1ncc(C)nc1C [2-Acetyl-3,5(6)-dimethylpyrazine] | 58.6 ± 36 | 58.1 ± 31 | 31.5 ± 32 | 49.4 ± 29 | 85.4 ± 17 | 65.1 ± 26 |  |  |  |  |  | 
2 | COC(=O)CCC(=O)OC [dimethyl succinate] | 43.2 ± 29 |  | 43.6 ± 22 |  | 53.9 ± 29 |  | 46.2 ± 31 | 49.1 ± 27 | 63.2 ± 28 |  |  | 
3 | C=C(C)C(=O)OC [Methyl methacrylate] | 45.7 ± 28 | 37 ± 26 | 39.3 ± 25 | 47.4 ± 26 | 55 ± 33 | 15.1 ± 22 |  |  |  |  |  | 
4 | CC(C)COC(=O)Cc1ccccc1 [Isobutyl phenylacetate] | 49 ± 31 | 33.7 ± 29 | 45.5 ± 30 | 54.3 ± 24 | 52 ± 29 | 15.7 ± 21 |  |  |  |  |  | 
5 | CC[C@H](C)O [(S)-( + )-2-butanol] | 33.1 ± 30 | 40.9 ± 30 | 50.2 ± 22 | 50.7 ± 21 | 16.4 ± 22 | 24.7 ± 27 |  |  |  |  |  | 
6 | CCCSSCCC [dipropyl disulfide] | 65.6 ± 31 | 65.5 ± 30 | 35.9 ± 26 | 40.1 ± 28 | 79.9 ± 21 | 59.7 ± 31 |  |  |  |  |  | 
7 | CCCCCCCO [heptanol] | 50.3 ± 30 | 44.9 ± 31 | 52.7 ± 25 | 59.6 ± 23 | 62.7 ± 27 | 30.3 ± 28 |  |  |  |  |  | 
8 | CCC(C)c1nccs1 (stereo not drawn) [2-(1-Methylpropyl)thiazole] | 41.3 ± 32 | 43.9 ± 31 | 25.7 ± 25 | 31.8 ± 23 | 83.9 ± 17 | 55.6 ± 31 |  |  |  |  |  | 
9 | CCC/C=C/C=O [2-hexenal] | 41.1 ± 33 | 43.1 ± 31 | 30.9 ± 26 | 53.1 ± 26 | 67.4 ± 28 | 39.7 ± 29 |  |  |  |  |  | 
10 | CCCCCOC(C)=O [pentyl acetate] | 58.2 ± 33 | 45.2 ± 28 | 57.5 ± 32 | 57.6 ± 23 | 64.8 ± 30 | 42.6 ± 28 |  |  |  |  |  | 
11 | Cc1ccc(O)cc1 [p-cresol] | 55 ± 33 | 54.1 ± 31 | 32.3 ± 29 | 31.6 ± 26 | 79 ± 20 | 68 ± 30 |  |  |  |  |  | 
12 | O=C(O)/C=C/C(=O)O [Fumaric acid] | 44 ± 31 |  | 49.5 ± 25 |  | 17.1 ± 23 |  | 51.9 ± 32 | 36.9 ± 24 | 58.8 ± 26 |  |  | 
13 | C=CCc1ccc(OC)cc1 [4-Allylanisole] | 64.2 ± 28 | 28.7 ± 27 | 60.8 ± 24 | 54.5 ± 24 | 60.8 ± 26 | 22.3 ± 29 |  |  |  |  |  | 
14 | CSCSC [Bis(methylthio)methane] |  | 50.3 ± 34 |  | 25.1 ± 25 |  | 78.7 ± 22 |  |  |  | 38.9 ± 31 | 45.4 ± 25 | 33.8 ± 26
15 | NCCc1ccccc1 [Phenethylamine] | 46.8 ± 34 | 38.8 ± 26 | 29.1 ± 28 | 48 ± 25 | 62.9 ± 34 | 22.8 ± 26 |  |  |  |  |  | 
16 | C=CCCCCCC [1-Octene] | 42.9 ± 28 | 45.6 ± 31 | 39.1 ± 24 | 48 ± 26 | 39.7 ± 29 | 33.6 ± 30 |  |  |  |  |  | 
17 | CCCCCCCCCC=O [decanal] | 44 ± 30 |  | 33.3 ± 23 |  | 59.9 ± 25 |  | 51.9 ± 35 | 28.7 ± 23 | 78.9 ± 20 |  |  | 
18 | CC(=O)c1cc2c(cc1C)C(C)(C)C(C)CC2(C)C (stereo not drawn) [6-Acetyl-1,1,2,4,4,7-Hexamethyltetralin] | 49.1 ± 31 |  | 67.7 ± 21 |  | 29.8 ± 28 |  | 57.3 ± 30 | 67.4 ± 24 | 51.7 ± 28 |  |  | 
19 | CCCCOC(=O)CC(CC(=O)OCCCC)(OC(C)=O)C(=O)OCCCC [Tributyl-2-Acetylcitrate] | 37.7 ± 28 |  | 51.5 ± 23 |  | 6.93 ± 11 |  | 35.9 ± 28 | 43.2 ± 22 | 41.4 ± 30 |  |  | 
20 | C=C1CCC2CC1C2(C)C (single isomer, unassigned; (-)) [(-)-beta-Pinene] | 47.8 ± 29 |  | 54.8 ± 22 |  | 32.2 ± 31 |  | 62.1 ± 31 | 50.5 ± 30 | 74.2 ± 22 |  |  | 
21 | CC(=O)OC(C)C [isopropyl acetate] | 40.1 ± 30 | 47.6 ± 27 | 51.5 ± 21 | 50 ± 23 | 13.3 ± 20 | 20.2 ± 23 |  |  |  |  |  | 
22 | CCCCCOC(=O)CCCCC [Amyl hexanoate] | 38.1 ± 30 |  | 53.8 ± 27 |  | 28.8 ± 29 |  | 39.1 ± 30 | 44.6 ± 28 | 67.3 ± 25 |  |  | 
23 | COc1cc(C(C)=O)ccc1O [Acetovanillone] | 41 ± 30 |  | 55.1 ± 21 |  | 35 ± 32 |  | 47.6 ± 29 | 45.7 ± 25 | 64 ± 28 |  |  | 
24 | CC(C)CCS [3-Methyl-1-butanethiol] |  | 54.6 ± 34 |  | 13.3 ± 18 |  | 88.3 ± 14 |  |  |  | 46.5 ± 29 | 32 ± 26 | 54.1 ± 30
25 | CCOC(=O)CC [ethyl propionate] | 50.7 ± 31 | 44.5 ± 34 | 39.9 ± 31 | 31.3 ± 30 | 75.7 ± 24 | 53.9 ± 32 |  |  |  |  |  | 
26 | S=C=NCc1ccccc1 [Benzyl isothiocyanate] | 40.9 ± 32 | 43.4 ± 26 | 15.1 ± 19 | 29 ± 23 | 80.9 ± 20 | 55 ± 30 |  |  |  |  |  | 
27 | CC(C)=CCCC(C)CCO (single isomer, unassigned; (-)) [(-)-citronellol] | 57.9 ± 31 | 49.6 ± 28 | 53.5 ± 30 | 61.3 ± 22 | 71.5 ± 27 | 41.6 ± 33 |  |  |  |  |  | 
28 | CCCCCC(=O)CC [3-octanone] | 56.4 ± 28 | 35.9 ± 30 | 50.9 ± 31 | 53.3 ± 23 | 69.7 ± 25 | 26 ± 27 |  |  |  |  |  | 
